In patent US10959450B2, “Food composition for relieving symptoms of allergic and autoimmune diseases” (priority 2017, dated 2021):

Tested on: H1N1 flu
Assay: Clinical Trial 6, influenza patient (H1N1 flu)
Type: in vivo
Conditions: person; Tamiflu taken for a week
Excerpt: They were a patient taking Tamiflu against symptoms of H1N1 flu and taking it for a week.

CCOC(=O)C1=C[C@@H](OC(CC)CC)[C@H](NC(C)=O)[C@@H](N)C1 [Tamiflu]
improvement of symptoms of H1N1 flu: minimal
